“And” between values parts separate entries of the source, which are not always exact repeats. Equal entries are not always repeated.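 Step 1: Grow cells in 96-well plates. Step 2: Expose to compound for 48 hours at 5 concentrations. Step 3: Interpolate endpoints linearly; if unreached, use highest concentration. At the GI50, growth is halved. TGI: concentration producing complete growth inhibition.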
Tests used:
Assay in all cases: NCI anticancer screen, dose series, 48 h
HL-60(TB) leukemia = system: HL-60(TB) leukemia
HS 578T breast = system: HS 578T breast
RPMI-8226 leukemia = system: RPMI-8226 leukemia
MDA-MB-435 = system: MDA-MB-435
MALME-3M melanoma = system: MALME-3M melanoma
UO-31 renal = system: UO-31 renal
BT-549 breast = system: BT-549 breast
UACC-257 melanoma = system: UACC-257 melanoma
NCI-H522 lung = system: NCI-H522 lung
NCI-H226 lung = system: NCI-H226 lung
OVCAR-5 ovarian = system: OVCAR-5 ovarian
A549 NSCLC = system: A549 NSCLC
CCRF-CEM leukemia = system: CCRF-CEM leukemia
COLO 205 colon = system: COLO 205 colon
HCC-2998 colon = system: HCC-2998 colon
786-0 renal = system: 786-0 renal
IGROV1 ovarian = system: IGROV1 ovarian
DU-145 prostate = system: DU-145 prostate
SK-MEL-2 melanoma = system: SK-MEL-2 melanoma
NCI/ADR-RES ovarian = system: NCI/ADR-RES ovarian
CAKI-1 renal = system: CAKI-1 renal
HCT-116 colon = system: HCT-116 colon
NCI-H23 lung = system: NCI-H23 lung
SK-MEL-5 melanoma = system: SK-MEL-5 melanoma
SK-MEL-28 melanoma = system: SK-MEL-28 melanoma
M14 melanoma = system: M14 melanoma
OVCAR-8 ovarian = system: OVCAR-8 ovarian
MDA-MB-231 breast = system: MDA-MB-231 breast
PC-3 prostate = system: PC-3 prostate
SF-539 CNS = system: SF-539 CNS
OVCAR-3 ovarian = system: OVCAR-3 ovarian
NCI-H460 lung = system: NCI-H460 lung
HT29 colon = system: HT29 colon
ACHN renal = system: ACHN renal
SF-268 CNS = system: SF-268 CNS
A498 renal = system: A498 renal
MCF7 breast = system: MCF7 breast
SNB-19 CNS = system: SNB-19 CNS
SF-295 CNS = system: SF-295 CNS
HCT-15 colon = system: HCT-15 colon
U251 CNS = system: U251 CNS
TK-10 renal = system: TK-10 renal
SNB-75 CNS = system: SNB-75 CNS
SK-OV-3 ovarian = system: SK-OV-3 ovarian
UACC-62 melanoma = system: UACC-62 melanoma
KM12 colon = system: KM12 colon
EKVX NSCLC = system: EKVX NSCLC
SN12C renal = system: SN12C renal
RXF 393 renal = system: RXF 393 renal
HOP-62 NSCLC = system: HOP-62 NSCLC
OVCAR-4 ovarian = system: OVCAR-4 ovarian
MOLT-4 leukemia = system: MOLT-4 leukemia
T-47D breast = system: T-47D breast
HOP-92 NSCLC = system: HOP-92 NSCLC

Work on `N=C(N)c1ccc(-c2ccc(-c3ccc(Cl)c(Cl)c3)o2)cc1` yielded a GI50 (HL-60(TB) leukemia) of 1.55 µM, a TGI (HL-60(TB) leukemia) of 4.05 µM and a GI50 (HS 578T breast) of 2.1 µM. It also gave a TGI (HS 578T breast) of 5.52 µM.

With `Cc1ccc(S(=O)(=O)Oc2nc3nc4ccccc4nc3nc2OS(=O)(=O)c2ccc(C)cc2)cc1` the TGI (RPMI-8226 leukemia) was > 100 µM, the TGI (MDA-MB-435) was > 100 µM and the TGI (MALME-3M melanoma) was > 100 µM. For the same compound, the TGI (UO-31 renal) was > 100 µM, the TGI (BT-549 breast) was > 100 µM and the TGI (UACC-257 melanoma) was > 100 µM. The TGI (NCI-H522 lung) was > 100 µM, the TGI (NCI-H226 lung) was > 100 µM and the TGI (OVCAR-5 ovarian) was > 100 µM. The TGI (A549 NSCLC) was > 100 µM, the TGI (CCRF-CEM leukemia) was > 100 µM and the TGI (COLO 205 colon) was > 100 µM. The TGI (HCC-2998 colon) was > 100 µM, the TGI (786-0 renal) was > 100 µM and the TGI (IGROV1 ovarian) was > 100 µM. For the same compound, the TGI (DU-145 prostate) was > 100 µM, the TGI (SK-MEL-2 melanoma) was > 100 µM and the TGI (NCI/ADR-RES ovarian) was > 100 µM. The TGI (CAKI-1 renal) was > 100 µM, the TGI (HCT-116 colon) was > 100 µM and the TGI (NCI-H23 lung) was > 100 µM. The TGI (SK-MEL-5 melanoma) was > 100 µM, the TGI (SK-MEL-28 melanoma) was > 100 µM and the TGI (M14 melanoma) was > 100 µM. The TGI (OVCAR-8 ovarian) was > 100 µM, the TGI (MDA-MB-231 breast) was > 100 µM and the TGI (PC-3 prostate) was > 100 µM. The TGI (SF-539 CNS) was > 100 µM, the TGI (OVCAR-3 ovarian) was > 100 µM and the TGI (NCI-H460 lung) was > 100 µM. For the same compound, the TGI (HT29 colon) was > 100 µM, the TGI (HS 578T breast) was > 100 µM and the TGI (ACHN renal) was > 100 µM. The TGI (SF-268 CNS) was > 100 µM, the TGI (A498 renal) was > 100 µM and the TGI (MCF7 breast) was > 100 µM. For the same compound, the TGI (SNB-19 CNS) was > 100 µM, the TGI (SF-295 CNS) was > 100 µM and the TGI (HCT-15 colon) was > 100 µM. The TGI (U251 CNS) was > 100 µM, the TGI (TK-10 renal) was > 100 µM and the TGI (SNB-75 CNS) was > 100 µM. The TGI (SK-OV-3 ovarian) was > 100 µM, the TGI (UACC-62 melanoma) was > 100 µM and the TGI (KM12 colon) was > 100 µM. For the same compound, the TGI (EKVX NSCLC) was > 100 µM, the TGI (SN12C renal) was > 100 µM and the TGI (RXF 393 renal) was > 100 µM.

With `COc1cc(/C=C/c2cc(O)c(C/C=C(\C)CC/C=C(\C)CO)c(O)c2)cc2c1O[C@]1(C)CC[C@@H](O)C(C)(C)[C@H]1C2` the GI50 (HOP-62 NSCLC) was 7.06 µM and 12.9 µM, the TGI (HOP-62 NSCLC) was > 89 µM and the GI50 (MDA-MB-435) was 38.4 µM. The TGI (MDA-MB-435) was > 79.6 µM, the GI50 (BT-549 breast) was 4.14 µM and the TGI (BT-549 breast) was > 54.7 µM. For the same compound, the GI50 (HL-60(TB) leukemia) was 0.511 µM, the TGI (HL-60(TB) leukemia) was 5.69 µM and the GI50 (UACC-257 melanoma) was > 100 µM. For the same compound, the TGI (UACC-257 melanoma) was > 100 µM, the TGI (NCI-H226 lung) was > 100 µM and the GI50 (OVCAR-5 ovarian) was > 100 µM. For the same compound, the TGI (OVCAR-5 ovarian) was > 100 µM, the GI50 (A549 NSCLC) was 3.96 µM and 9.59 µM and the TGI (A549 NSCLC) was > 62.5 µM. For the same compound, the GI50 (COLO 205 colon) was 3.21 µM and 15.6 µM, the TGI (COLO 205 colon) was > 100 µM and the GI50 (OVCAR-4 ovarian) was 32.5 µM. The TGI (OVCAR-4 ovarian) was > 100 µM, the GI50 (HCC-2998 colon) was 12 µM and the TGI (HCC-2998 colon) was 39.6 µM. The TGI (MOLT-4 leukemia) was 0.0949 µM, the GI50 (786-0 renal) was 0.0172 µM and 0.13 µM and the GI50 (IGROV1 ovarian) was > 100 µM. The TGI (IGROV1 ovarian) was > 100 µM, the GI50 (DU-145 prostate) was 26.4 µM and the TGI (DU-145 prostate) was > 100 µM. For the same compound, the GI50 (SK-MEL-2 melanoma) was > 100 µM, the TGI (SK-MEL-2 melanoma) was > 100 µM and the TGI (NCI/ADR-RES ovarian) was > 100 µM. The GI50 (CAKI-1 renal) was 9.36 µM, the TGI (CAKI-1 renal) was > 42.9 µM and the TGI (HCT-116 colon) was 46.5 µM. For the same compound, the GI50 (NCI-H23 lung) was 4.93 µM and 20.5 µM, the TGI (NCI-H23 lung) was > 93.7 µM and the GI50 (SK-MEL-28 melanoma) was > 58.3 µM. For the same compound, the TGI (SK-MEL-28 melanoma) was > 100 µM, the GI50 (T-47D breast) was > 62.4 µM and the TGI (T-47D breast) was > 100 µM. For the same compound, the TGI (HOP-92 NSCLC) was > 84.6 µM, the GI50 (M14 melanoma) was 0.486 µM and 3.68 µM and the TGI (M14 melanoma) was 3.72 µM and 19 µM. For the same compound, the GI50 (OVCAR-8 ovarian) was > 53.3 µM, the TGI (OVCAR-8 ovarian) was > 82.3 µM and the GI50 (MDA-MB-231 breast) was 31 µM. For the same compound, the TGI (MDA-MB-231 breast) was > 100 µM, the TGI (PC-3 prostate) was > 100 µM and the GI50 (SF-539 CNS) was 3.4 µM. For the same compound, the TGI (SF-539 CNS) was 11.1 µM, the GI50 (OVCAR-3 ovarian) was > 29.3 µM and the TGI (OVCAR-3 ovarian) was > 70.2 µM. The TGI (NCI-H460 lung) was > 100 µM, the GI50 (HT29 colon) was 31.1 µM and the TGI (HT29 colon) was > 100 µM. For the same compound, the TGI (ACHN renal) was > 71.4 µM, the TGI (SF-268 CNS) was > 100 µM and the GI50 (SNB-19 CNS) was > 91.9 µM. The TGI (SNB-19 CNS) was > 100 µM, the GI50 (SF-295 CNS) was 1.1 µM and the TGI (HCT-15 colon) was > 72.4 µM. The TGI (U251 CNS) was 8.3 µM and > 72.6 µM, the TGI (TK-10 renal) was > 93.8 µM and the GI50 (SNB-75 CNS) was 55 µM. The TGI (SNB-75 CNS) was > 100 µM, the GI50 (SK-OV-3 ovarian) was > 100 µM and the TGI (SK-OV-3 ovarian) was > 100 µM. For the same compound, the TGI (KM12 colon) was > 100 µM, the TGI (EKVX NSCLC) was 98.6 µM and the TGI (SN12C renal) was > 100 µM. For the same compound, the TGI (RXF 393 renal) was > 100 µM.

From PubChem BioAssay (NCI)
